Laboratory results: ChEMBL document CHEMBL5291721, “A preclinical secondary pharmacology resource illuminates target-adverse drug reaction associations of marketed drugs” (Nat Commun, 2023)

What was measured:
[1] = target: T1, Adenosine receptor A3 (Homo sapiens, UniProt P0DMS8)
T1 sequence (P0DMS8 whole entry): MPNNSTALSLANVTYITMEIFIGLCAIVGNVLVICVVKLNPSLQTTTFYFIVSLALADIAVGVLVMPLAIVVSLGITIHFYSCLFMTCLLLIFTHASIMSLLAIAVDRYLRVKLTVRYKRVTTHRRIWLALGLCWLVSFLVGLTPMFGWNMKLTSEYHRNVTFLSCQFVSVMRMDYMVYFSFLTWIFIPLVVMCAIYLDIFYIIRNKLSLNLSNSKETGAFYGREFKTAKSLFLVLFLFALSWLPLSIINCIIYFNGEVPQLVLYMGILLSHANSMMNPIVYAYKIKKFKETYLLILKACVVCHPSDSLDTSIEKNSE

[2] = target: Beta-1 adrenergic receptor (Homo sapiens, UniProt P08588); assay type: functional
Beta-1 adrenergic receptor, sequence (P08588 whole entry): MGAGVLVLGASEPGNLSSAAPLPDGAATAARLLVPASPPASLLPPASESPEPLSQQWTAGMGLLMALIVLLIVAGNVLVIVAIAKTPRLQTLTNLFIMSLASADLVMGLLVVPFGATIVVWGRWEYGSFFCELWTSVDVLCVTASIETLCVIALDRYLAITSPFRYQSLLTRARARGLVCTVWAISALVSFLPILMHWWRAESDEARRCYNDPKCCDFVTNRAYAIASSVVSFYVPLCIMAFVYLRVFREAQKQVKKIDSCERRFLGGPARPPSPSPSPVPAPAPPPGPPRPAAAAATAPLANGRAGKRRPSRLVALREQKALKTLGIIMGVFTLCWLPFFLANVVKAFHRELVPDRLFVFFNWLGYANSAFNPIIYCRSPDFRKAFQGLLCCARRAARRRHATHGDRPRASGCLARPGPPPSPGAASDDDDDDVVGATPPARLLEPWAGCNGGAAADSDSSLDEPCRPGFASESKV

[3] = target: T2, Cholecystokinin receptor type A (Homo sapiens, UniProt P32238)
T2 sequence (P32238 whole entry): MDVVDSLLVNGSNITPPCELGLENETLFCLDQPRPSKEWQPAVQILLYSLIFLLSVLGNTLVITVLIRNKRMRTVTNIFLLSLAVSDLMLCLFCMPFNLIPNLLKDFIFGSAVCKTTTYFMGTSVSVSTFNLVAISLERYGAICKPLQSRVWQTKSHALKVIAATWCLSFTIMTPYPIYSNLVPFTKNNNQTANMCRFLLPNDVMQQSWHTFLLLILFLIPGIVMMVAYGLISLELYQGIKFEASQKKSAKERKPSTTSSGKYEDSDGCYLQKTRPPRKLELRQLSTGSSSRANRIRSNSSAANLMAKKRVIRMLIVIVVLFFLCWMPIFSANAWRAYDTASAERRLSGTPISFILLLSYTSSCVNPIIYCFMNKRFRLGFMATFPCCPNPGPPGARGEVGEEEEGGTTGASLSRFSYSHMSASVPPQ

[4] = target: T3, 5-hydroxytryptamine receptor 3A (Homo sapiens, UniProt P46098); assay type: functional
T3 sequence (P46098 whole entry): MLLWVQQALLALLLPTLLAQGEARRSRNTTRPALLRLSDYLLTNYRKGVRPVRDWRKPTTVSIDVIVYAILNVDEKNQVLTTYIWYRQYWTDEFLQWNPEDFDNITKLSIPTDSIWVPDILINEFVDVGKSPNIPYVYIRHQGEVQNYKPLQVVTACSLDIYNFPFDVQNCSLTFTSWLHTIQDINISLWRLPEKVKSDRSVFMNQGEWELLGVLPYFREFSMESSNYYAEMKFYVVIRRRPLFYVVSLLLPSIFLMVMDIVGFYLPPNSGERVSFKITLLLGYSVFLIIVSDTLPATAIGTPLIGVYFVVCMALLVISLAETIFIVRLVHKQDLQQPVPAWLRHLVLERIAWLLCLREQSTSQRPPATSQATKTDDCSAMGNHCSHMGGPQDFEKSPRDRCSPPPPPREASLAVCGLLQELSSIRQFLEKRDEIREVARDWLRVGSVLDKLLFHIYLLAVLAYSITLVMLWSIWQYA

[5] = target: T4, Glucocorticoid receptor (Homo sapiens, UniProt P04150)
T4 sequence (P04150 whole entry): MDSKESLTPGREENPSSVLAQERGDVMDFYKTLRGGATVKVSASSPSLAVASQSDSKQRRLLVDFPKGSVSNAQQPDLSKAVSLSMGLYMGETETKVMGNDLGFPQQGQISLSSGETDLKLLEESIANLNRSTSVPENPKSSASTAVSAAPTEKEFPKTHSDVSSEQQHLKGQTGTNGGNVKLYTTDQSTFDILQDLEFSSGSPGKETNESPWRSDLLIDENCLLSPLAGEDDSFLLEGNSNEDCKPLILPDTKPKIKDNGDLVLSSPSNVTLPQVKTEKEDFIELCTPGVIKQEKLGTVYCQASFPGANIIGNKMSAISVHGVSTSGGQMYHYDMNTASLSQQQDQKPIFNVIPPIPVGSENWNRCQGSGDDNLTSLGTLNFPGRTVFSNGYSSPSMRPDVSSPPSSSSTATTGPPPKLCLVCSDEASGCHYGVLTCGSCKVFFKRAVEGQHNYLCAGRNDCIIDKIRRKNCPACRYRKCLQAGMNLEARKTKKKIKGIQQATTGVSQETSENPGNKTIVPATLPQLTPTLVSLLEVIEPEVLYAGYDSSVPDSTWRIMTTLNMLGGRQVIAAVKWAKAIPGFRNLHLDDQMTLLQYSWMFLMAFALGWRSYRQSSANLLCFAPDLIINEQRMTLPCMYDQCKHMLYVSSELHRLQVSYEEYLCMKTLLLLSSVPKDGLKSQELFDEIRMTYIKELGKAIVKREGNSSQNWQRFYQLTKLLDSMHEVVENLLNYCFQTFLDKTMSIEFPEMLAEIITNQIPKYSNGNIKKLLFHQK

[6] = target: Delta-type opioid receptor (Homo sapiens, UniProt P41143)
Delta-type opioid receptor, sequence (P41143 whole entry): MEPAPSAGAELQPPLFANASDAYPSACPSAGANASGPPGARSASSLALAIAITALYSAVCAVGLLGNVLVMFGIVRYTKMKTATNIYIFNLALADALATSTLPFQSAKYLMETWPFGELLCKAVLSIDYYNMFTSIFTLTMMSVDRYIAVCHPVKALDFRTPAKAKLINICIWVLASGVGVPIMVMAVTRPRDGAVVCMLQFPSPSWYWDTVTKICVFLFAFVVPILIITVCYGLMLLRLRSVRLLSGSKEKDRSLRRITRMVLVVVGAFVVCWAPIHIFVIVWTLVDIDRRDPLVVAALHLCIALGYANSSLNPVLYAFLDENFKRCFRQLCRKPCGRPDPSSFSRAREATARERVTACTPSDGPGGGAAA

[7] = target: Kappa-type opioid receptor (Homo sapiens, UniProt P41145)
Kappa-type opioid receptor, sequence (P41145 whole entry): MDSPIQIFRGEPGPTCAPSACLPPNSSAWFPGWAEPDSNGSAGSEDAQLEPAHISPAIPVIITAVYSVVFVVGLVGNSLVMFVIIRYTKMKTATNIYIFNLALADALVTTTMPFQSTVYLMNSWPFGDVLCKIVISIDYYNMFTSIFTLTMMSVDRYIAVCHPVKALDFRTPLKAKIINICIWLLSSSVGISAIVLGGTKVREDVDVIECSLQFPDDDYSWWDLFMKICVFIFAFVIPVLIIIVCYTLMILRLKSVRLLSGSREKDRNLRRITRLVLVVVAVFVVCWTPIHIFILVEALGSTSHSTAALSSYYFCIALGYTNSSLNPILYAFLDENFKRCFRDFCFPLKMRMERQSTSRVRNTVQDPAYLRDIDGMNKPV

[8] = target: T5, Thromboxane A2 receptor (Homo sapiens, UniProt P21731)
T5 sequence (P21731 whole entry): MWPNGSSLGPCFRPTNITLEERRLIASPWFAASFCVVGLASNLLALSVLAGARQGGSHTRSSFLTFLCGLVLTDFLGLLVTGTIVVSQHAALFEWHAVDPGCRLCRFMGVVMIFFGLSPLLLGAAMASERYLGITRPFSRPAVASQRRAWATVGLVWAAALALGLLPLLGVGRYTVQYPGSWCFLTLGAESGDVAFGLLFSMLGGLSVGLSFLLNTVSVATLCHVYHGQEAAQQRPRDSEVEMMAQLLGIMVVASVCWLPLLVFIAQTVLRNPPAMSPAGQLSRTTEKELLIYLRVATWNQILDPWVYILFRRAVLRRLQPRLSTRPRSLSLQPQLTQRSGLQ

[9] = target: Sodium-dependent noradrenaline transporter (Homo sapiens, UniProt P23975)
Sodium-dependent noradrenaline transporter, sequence (P23975 whole entry): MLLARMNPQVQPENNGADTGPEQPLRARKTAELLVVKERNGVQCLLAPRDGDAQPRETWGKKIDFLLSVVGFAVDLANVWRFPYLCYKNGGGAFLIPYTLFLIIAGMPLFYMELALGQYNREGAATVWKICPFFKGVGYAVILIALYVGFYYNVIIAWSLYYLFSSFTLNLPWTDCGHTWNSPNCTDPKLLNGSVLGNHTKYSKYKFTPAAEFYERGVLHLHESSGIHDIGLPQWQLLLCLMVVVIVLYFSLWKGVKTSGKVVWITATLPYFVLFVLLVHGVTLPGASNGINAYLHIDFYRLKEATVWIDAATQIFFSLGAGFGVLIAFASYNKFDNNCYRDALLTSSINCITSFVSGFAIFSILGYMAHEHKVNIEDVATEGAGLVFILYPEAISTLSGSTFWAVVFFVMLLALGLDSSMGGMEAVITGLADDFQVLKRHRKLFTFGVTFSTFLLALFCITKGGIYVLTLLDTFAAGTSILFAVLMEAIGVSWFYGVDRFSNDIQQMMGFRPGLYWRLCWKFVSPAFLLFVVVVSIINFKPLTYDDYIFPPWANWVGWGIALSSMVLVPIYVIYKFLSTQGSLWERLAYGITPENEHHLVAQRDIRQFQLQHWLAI
Note: assay procedure not described here.

Compound	AC50 [1] [µM]	AC50 [2] [µM]	AC50 [3] [µM]	AC50 [4] [µM]	AC50 [5] [µM]	AC50 [6] [µM]	AC50 [7] [µM]	AC50 [8] [µM]	AC50 [9] [µM]
COc1ccc(/C=C/C(=O)Nc2ccccc2C(=O)O)cc1OC	> 30	> 30	> 30	> 30	> 30	> 30	> 30	> 30	> 30
NCCCC(O)(P(=O)(O)O)P(=O)(O)O [ALENDRONIC ACID]	> 30	> 10	> 30	> 10	> 30	> 10	> 10	> 30	
Nc1ccc(C(=O)O)c(O)c1 [AMINOSALICYLIC ACID]	> 30	> 30	> 30	> 30	> 30	> 30	> 30	> 30	> 30
COc1cc(OC)c(C(=O)CCCN2CCCC2)c(OC)c1 [BUFLOMEDIL]	> 30	> 30	> 30	> 30	> 30	> 30	4.3	> 30	> 30
CS(=O)(=O)OCCCCOS(C)(=O)=O [BUSULFAN]	> 30	> 30	> 30	> 30		> 30	> 30		> 30
CCCCCCNC(=O)n1cc(F)c(=O)[nH]c1=O [CARMOFUR]	> 30	> 30	> 30	> 30	> 30	> 30	> 30	> 30	> 30
C=CC1=C(C(=O)O)N2C(=O)[C@@H](NC(=O)/C(=N\OCC(=O)O)c3csc(N)n3)[C@H]2SC1 [CEFIXIME]	> 30	> 30	> 30						> 30
CC(C)(C)NCC(O)c1cc(Cl)c(N)c(Cl)c1 (stereo not drawn) [CLENBUTEROL]	> 30	0.112	> 30	> 30		> 30	28	> 30	27.9
COc1cccc2c1C(=O)c1c(O)c3c(c(O)c1C2=O)C[C@@](O)(C(C)=O)C[C@@H]3O[C@H]1C[C@H](N)[C@H](O)[C@H](C)O1 [DAUNORUBICIN]	26.5	28	24	12.8	0.11	16.2	> 30	25	10.4
C[C@@H]1C[C@H]2[C@@H]3C[C@H](F)C4=CC(=O)C=C[C@]4(C)[C@@]3(F)[C@@H](O)C[C@]2(C)[C@H]1C(=O)CO [DIFLUCORTOLONE]	> 30					> 30			> 30
CC(=O)OCC(CCn1cnc2cnc(N)nc21)COC(C)=O [FAMCICLOVIR]	> 30	> 10	> 30	> 30	> 30	> 30	> 10	> 30	> 10
Nc1ccn([C@@H]2O[C@H](CO)[C@@H](O)C2(F)F)c(=O)n1 [GEMCITABINE]	> 30	> 30	> 30	> 30	> 30	> 30	> 10	> 30	> 30
COC1=C(OC)C(=O)C(CCCCCCCCCCO)=C(C)C1=O [IDEBENONE]	> 30	> 10	> 30	> 10	> 30	> 10	> 10	31.2	> 10
Nc1nc2c(c(=O)[nH]1)N(C=O)C(CNc1ccc(C(=O)N[C@@H](CCC(=O)O)C(=O)O)cc1)CN2 (stereo partly drawn) [LEUCOVORIN]	> 30	> 30	> 30	> 30	> 30	> 30	> 30	> 30	> 30
CCn1cc(C(=O)O)c(=O)c2cc(F)c(N3CCN(C)CC3)cc21 [PEFLOXACIN]	> 30	> 30	> 30	> 30	> 30	> 30			> 30
C[n+]1ccccc1/C=N/O [PRALIDOXIME]				> 30		> 30	> 30		
CCCNC(C)C(=O)Nc1ccccc1C (stereo not drawn) [PRILOCAINE]	> 30	> 30	> 30	> 30	> 30	> 30	> 30		> 30
CC(C)CC(N(C)C)C1(c2ccc(Cl)cc2)CCC1 (stereo not drawn) [SIBUTRAMINE]	> 30	> 10	> 30	> 30	> 30	> 30		> 30	
CC(C)(C)NC[C@H](O)COc1nsnc1N1CCOCC1 [TIMOLOL]	> 30		> 30	> 30	> 30	> 30	> 30	> 30	> 30
COc1cc2nccc(Oc3ccc(NC(=O)Nc4cc(C)on4)c(Cl)c3)c2cc1OC [TIVOZANIB]	> 3							> 3	> 3
CN1[C@@H]2CC[C@H]1C[C@@H](OC(=O)c1c[nH]c3ccccc13)C2 [TROPISETRON]	> 30	> 30	> 10				> 30	> 30	
COc1ccc(C(CN(C)C)C2(O)CCCCC2)cc1 (stereo not drawn) [VENLAFAXINE]	> 30	> 10	> 30	> 30		> 30	> 10		
